Source: patent US20040006094A1, “4-pyrimidinamine derivatives, pharmaceutical compositions and related methods” (priority 2000, published 2004)

Experiments:
[1] = target: CAMKII; settings: read-out: Potency, Ki, CAMKII; cited from earlier work
[2] = system: differentiated P19 neurons; experiment: Differentiated P19 excitotoxicity assay: neuroprotection by known kinase inhibitors against glutamate/glycine (Alamar Blue, CFDA); format: cell-based, murine; settings: 3 mM glutamate, 1 mM glycine
Description: Data points are the average±standard error of three separate experiments.
These cells were used to measure the effects of various known kinase inhibitors (Compound Identification (ID) column in Table I) upon cytotoxicity-induced by NMDA. First, P19 cells were differentiated as described in Example 2. Then cells were exposed to 3 mM of glutamate in the presence of 1 mM glycine.
Cell viability was determined. Compounds that prevented excitotoxicity were determined by measuring the percentage of viable cells compared to differentiated P19 cells that were not presented with a toxic insult (Table I).
Cell viability was measured using two methods. The first method was a confocal, single-cell fluorescence imaging-based method using the live cell dye carboxy-fluorescein diacetate (CFDA). CFDA labels the cell bodies and processes of living cells. […] CFDA fluorescence was measured using a modified Attofluor Imager device (Atto Instruments, Rockville Pike, Md.). Cells were labeled with 1 uM CFDA for 15 min in media, then placed onto the stage of the Attofluor microscope. The dye was excited by light from a mercury lamp source passed through a 488 nm bandpass filter of 10 nm band width, passed through a CARV real-time confocal spinning disk module (Atto Instruments, Rockville, Md.), and then passed through a 40×oil immersion objective (Zeiss Fluar, NA=1.3). Emitted light was transmitted through a 495 nm dichroic mirror, collected to an Attofluor intensified CCD camera, and images were visualized using Attofluor Ratio Vision software (Atto Instruments, Rockville, Md.).
(§1) The second method for measuring cell viability was a plate reader method. Cells plated into black 96 well plates (Packard viewplates) were loaded with 5% Alamar Blue dye (Biosource International). Alamar Blue is a dye that takes advantage of mitochondrial reductases to convert non-fluorescent resazurin to fluorescent resorufin (excitation 535 nm, emission 580 nm). Baseline fluorescence counts were read at room temperature in a Wallac plate reader immediately after addition of Alamar blue. Fluorescence counts of cell viability were taken the same way after 1 hour incubation at 37° C. Fluorescence was expressed as a percent of control, untreated cells after subtraction of background fluorescence. Live/dead cells were confirmed visually with a light microscope.
Kinase inhibition activities and potencies were derived from the literature (Chijiwa et al. 1990; Favata et al. 1998; Henry et al. 1998; Inhorn and Majerus 1987; Kobayashi et al. 1989; Lee et al. 1994; Onoda et al. 1989; Tokumitsu et al. 1990). […] Curves were fit, and confidence intervals were determined using GraphPad Prism software.

[3] = system: differentiated P19 neurons; experiment: Drug screening using differentiated P19 cell assay (neuroprotection against 3 mM glutamate and 1 mM glycine); format: cell-based, murine; settings: dose response 0.005-3 μM, >1 = no observed maximum within highest dose tested (3 μM)
Description: Commercially available chemical libraries (BioFocus PLC, UK) were screened using the methods described herein. The stock concentration of the compounds was about 400 μM in DMSO. The concentration of compounds used in the primary screen was 1 μM. […] Columns 4-11 received compounds at the following final concentrations (μM): 3, 1.2, 0.48, 0.192, 0.077, 0.031, 0.012 and 0.005. Each row contained a different compound for confirmation. Only rows B-G received compounds, and rows A and H remained untreated.
Only the 4-pyrimidinamines are the subject of this invention, although limited data for 2-pyridinamines are presented as well. “% Inh” indicates the percentage of control cells surviving after 24 hours, and represents the neuroprotective effect of the compounds screened at 1 micromolar concentration. IC50 relate to data from dose response experiments. […] ND refers to compounds not tested in dose-response experiments.
The representative compounds listed in Tables IX<X, XI and XII were tested according to the procedure described in Example 5 with results as listed in Table XIII. Unless otherwise noted, molecular weights were measure on a Hewlitt-Packard Series 1050 Chemical Ionization mass spectrometer.

[4] = system: P19 neurons; experiment: P19 neuron viability / toxicity by Alamar blue fluorescence; format: cell-based, murine
Description: Alamar Blue fluorescence, an indicator of cell viability, was used to determine cell viability after an NMDA-induced cytotoxic insult. […] However, since raw fluorescence counts vary from experiment to experiment, FIGS. 2A, 2B, and 2C are expressed as a percent of control.
Glutamate toxicity dose response in the presence of a constant 1 mM glycine concentration was measured in the differentiated P19 neurons. The curve generated through the data points is the average of 6 separate dose response curves. Data points are represented as the percent of control cells±standard error. % control=(([Glutamate]exp−[Glutamate]max)/(Controlvehicle−[Glutamate]max))×100.
as §1
Cells were then assayed for Alamar blue fluorescence. The curve generated through the data points is the average of 3 separate dose response curves. Data points are represented as percent of control cells±standard error.

[5] = system: Male Wistar rats; experiment: Transient model of cerebral ischemia in rats (lesion volume); format: in vivo, rat; settings: i.v., 1 hr post ischemia onset, 24 h, average of 12
Description: Male Wistar rats (Iffa Crédo, France), weighing 250-300 g, were housed 2 per cage under a light-dark cycle of 12 hr-12 hr (light on at 7:00 a.m., off at 7:00 p.m.) at a room temperature of 21±2° C., with 50±15% humidity, for a minimum of 5 days before the experiments. During this time, the rats had free access to commercial rat chow (Trouw Nutrition France, Vigny, France, ref. 811002) and tap water.
The animals were anaesthetized with 5% halothane in air for induction, then 1-2% halothane during surgery. The rat's body temperature was maintained at 37° C. with a heating pad. A 2 cm incision was made at the center of the neck and the right common carotid artery (CCA), external carotid artery (ECA) and internal carotid artery (ICA) were exposed under an operating microscope. The ICA was further dissected to identify the pterygopalatine artery (PA) branch and the intracranial ICA branch. The CCA was ligated. A 3-0 silk suture was tied at the origin of the ECA and ligated. A catheter (id=0.58 mm) was introduced into the CCA through a small puncture and advanced to the intracranial branch of the ICA. A 4-0 surgical nylon suture was introduced into the catheter. A length of approximately 19 mm of nylon suture was gently advanced from the CCA into the lumen of the ICA until the suture blocked the origin of the MCA. The suture was sealed into the catheter by heat, leaving 1 cm of catheter protruding so the suture could be withdrawn to allow reperfusion. The incision was closed using skin clips. Anaesthesia was then terminated and the animals were placed under heat lamps until recovery from anaesthesia. The rats awakened 10-15 min later. After 2 hr of ischemia, reperfusion was performed by withdrawal of the suture until the tip cleared the ICA lumen. Vehicle or test compound was administered intraperitoneally (i.p.) or intravenously (i.v.) at 1 hr post ischemia onset.
24 h after the onset of occlusion, the rats were killed by decapitation. The brains were immediately removed, frozen in isopentane and stored at −20° C. The brains were then cut in 20 μm thick sections in a cryocut. Every 20th slice was used to measure infarct area. The sections were stained with cresyl violet and the areas of infarct in the striatum and cortex were determined by planimetry using an image analysis software (Image, NIH) after digitalization of the section images.
Following the procedure described above, MK-801, compound #46 and compound #264 (as listed in the Tables herein) were evaluated for neuroprotective effects in rats with results as listed in Table VIII. The data represent average lesion volume in mm^3 for 12 measurements. Vehicle used was 15% solutol in 5% dextrose.

CN([C@@H](Cc1ccc(OS(=O)(=O)c2cccc3cnccc23)cc1)C(=O)N1CCN(c2ccccc2)CC1)S(=O)(=O)c1cccc2cnccc12 [KN62]
Ki [1]: ~0.9 µM | Maximal Efficacy for Neuroprotection [2]: <10% | IC50 for Neuroprotection [lower-upper 95% C.I.] ([2]; mean of three separate curves): Ineffective

CCN(CCO)c1ccc(Nc2cc(-c3cc(C(F)(F)F)cc(C(F)(F)F)c3)ncn2)cc1 [Cmpd 48]
IC50 [3]: 0.48 µM

CCn1c2ccccc2c2ccc(Nc3cc(-c4ccc(N5CCN(C)CC5)cc4)ncn3)cc21 [Cmpd 154]
IC50 [3]: 0.55 µM

CCN(CCO)c1ccc(Nc2cc(-c3ccc(CNC(=O)OC(C)(C)C)cc3)ncn2)cc1 [Cmpd 147]
IC50 ([3]; Mus musculus, Neuron): 1.09 µM

CCN(CCO)c1ccc(Nc2cc(-c3ccc(C#N)cc3)ncn2)cc1 [Cmpd 64]
IC50 ([3]; Mus musculus, Neuron): > 1 µM

CN(C)c1ccc(Nc2cc(-c3cccc(-c4ccccc4)c3)ncn2)cc1 [Cmpd 43, 1,4-benzenediamine, N^1-(6-[1,1′-biphenyl]-3-yl-4-pyrimidinyl)-N^4,N^4-dimethyl-]
IC50 ([3]; Mus musculus, Neuron): 0.22 µM

CCN(CCO)c1ccc(Nc2cc(-c3cccc([N+](=O)[O-])c3)ncn2)cc1 [Cmpd 49]
IC50 ([3]; Mus musculus, Neuron): 0.55 µM

CCN(CCO)c1ccc(Nc2cc(-c3cnc(OCc4ccccc4)nc3OCc3ccccc3)ncn2)cc1 [Cmpd 58, 2-{[4-(2′,4′-is-benzyloxy-[4,5′]bipyrimidinyl-6-ylamino)-phenyl]-ethyl-amino}-ethanol]
IC50 ([3]; Mus musculus, Neuron): 0.39 µM

CCN(CCO)c1ccc(Nc2cc(-c3cc4ccccc4s3)ncn2)cc1 [Cmpd 54, ethanol, 2-[[4-[(6-benzo[b]thien-2-yl-4-pyrimidinyl)amino]phenyl]ethylamino]-]
IC50 ([3]; Mus musculus, Neuron): 0.24 µM

CN(C)c1ccc(Nc2cc(-c3ccc(C#N)cc3)ncn2)cc1 [Cmpd 62]
IC50 ([3]; Mus musculus, Neuron): > 1 µM

CCn1c2ccccc2c2ccc(Nc3cc(-c4cc(OC)c(OC)c(OC)c4)ncn3)cc21 [Cmpd 152]
IC50 [3]: > 1 µM

CN(C)c1ccc(Nc2cc(-c3ccc(N(C)C)cc3)ncn2)cc1 [Cmpd 149]
IC50 ([3]; Mus musculus, Neuron): 0.33 µM

CN(C)c1ccc(Nc2cc(-c3cc(C(F)(F)F)cc(C(F)(F)F)c3)ncn2)cc1 [Cmpd 44, 1,4-benzenediamine, N^1-[6-[3,5-bis(trifluoromethyl)phenyl]-4-pyrimidinyl]-N^4,N^4-dimethyl-]
IC50 ([3]; Mus musculus, Neuron): 0.26 µM

CN(C)c1ccc(Nc2cc(-c3ccccc3Oc3ccccc3)ncn2)cc1 [Cmpd 63]
IC50 ([3]; Mus musculus, Neuron): > 1 µM

CCN(CCO)c1ccc(Nc2cc(-c3ccccc3Oc3ccccc3)ncn2)cc1 [Cmpd 56]
IC50 ([3]; Mus musculus, Neuron): 0.57 µM

CCN(CCO)c1ccc(Nc2cc(C3C=C4C=CC=CC4O3)ncn2)cc1 (stereo not shown) [Cmpd 53]
IC50 ([3]; Mus musculus, Neuron): 0.54 µM

CCN(CCO)c1ccc(Nc2cc(-c3cccc(N(C)C)c3)ncn2)cc1 [Cmpd 148]
IC50 ([3]; Mus musculus, Neuron): 0.47 µM

CCN(CCO)c1ccc(Nc2cc(-c3ccc(OC(F)(F)F)cc3)ncn2)cc1 [Cmpd 51, ethanol, 2-[ethyl[4-[[6-[4-(trifluoromethoxy)phenyl]-4-pyrimidinyl]amino]phenyl]amino]-]
IC50 ([3]; Mus musculus, Neuron): 0.23 µM

N[C@@H](CCC(=O)O)C(=O)O [Glutamate]
reduction in Alamar blue fluorescence ([4]; 3 mM glutamate and 1 mM glycine for 24 hours): 60% | EC50 ([4]; constant 1 mM glycine, 24 hours, average of 6 curves, read-out: Glutamate toxicity EC50): 8.1 µM

Oc1ccc(-c2cc(Nc3ccc(N4CCN(c5ccccc5)CC4)cc3)ncn2)cc1 [Cmpd 65]
IC50 ([3]; Mus musculus, Neuron): > 1 µM

O=S(=O)(NCCNC/C=C/c1ccc(Br)cc1)c1cccc2cnccc12 [H-89]
Ki [1]: ~30 µM | Maximal Efficacy for Neuroprotection [2]: <25% | IC50 ([2]; mean of three separate curves, read-out: IC50 for Neuroprotection [lower-upper 95% C.I.]): > 10 µM

CCN(CCO)c1ccc(Nc2cc(-c3ccc(SC)cc3)ncn2)cc1 [Cmpd 50]
IC50 ([3]; Mus musculus, Neuron): 0.41 µM

CCN(CCO)c1ccc(Nc2cc(-c3cccc(-c4ccccc4)c3)ncn2)cc1 [Cmpd 46, ethanol, 2-[[4-[(6-[1,1′-biphenyl]-3-yl-4-pyrimidinyl)amino]phenyl]ethylamino]-]
Cortex + Striatum Vol. (mm^3) ([5]; 0.6 mg/kg): 326.6 ± 26.0 mm^3 | Cortex Vol. (mm^3) ([5]; 0.6 mg/kg): 247.6 ± 24.8 mm^3 | Striatum Vol. (mm^3) ([5]; 0.6 mg/kg): 79.1 ± 3.0 mm^3 | Cortex + Striatum Vol. (mm^3) ([5]; 3 mg/kg): 290.8 ± 28.1 mm^3 | Cortex Vol. (mm^3) ([5]; 3 mg/kg): 214.7 ± 26.6 mm^3 | Striatum Vol. (mm^3) ([5]; 3 mg/kg): 76.1 ± 2.8 mm^3 | IC50 ([3]; Mus musculus, Neuron): 0.07 µM

CN(C)c1ccc(Nc2cc(-c3cc4ccccc4o3)ncn2)cc1 [Cmpd 59]
IC50 [3]: 0.48 µM

CCN(CCO)c1ccc(Nc2cc(-c3ccc(-c4ccccc4)cc3)ncn2)cc1 [Cmpd 47]
IC50 ([3]; Mus musculus, Neuron): 0.49 µM

CN(C)c1ccc(Nc2cc(-c3ccc4ccccc4c3)ncn2)cc1 [Cmpd 41]
IC50 [3]: 0.54 µM

CCN(CCO)c1ccc(Nc2cc(-c3ccsc3)ncn2)cc1 [Cmpd 55]
IC50 ([3]; Mus musculus, Neuron): 0.86 µM

CCn1c2ccccc2c2ccc(Nc3cc(-c4ccc(OC)c(OC)c4)ncn3)cc21 [Cmpd 151]
IC50 [3]: > 1 µM

CCN(CCO)c1ccc(Nc2cc(-c3ccc4ccccc4c3)ncn2)cc1 [Cmpd 45]
IC50 [3]: 0.57 µM

CN(C)c1ccc(Nc2cc(-c3cccc4ccccc34)ncn2)cc1 [Cmpd 61]
IC50 ([3]; Mus musculus, Neuron): > 1 µM

CN(C)c1ccc(Nc2cc(-c3ccc(OCc4ccccc4)cc3)ncn2)cc1 [Cmpd 42, 1,4-benzenediamine, N^1,N^1-dimethyl-N^4-[6-[4-(phenylmethoxy)phenyl]-4-pyrimidinyl]-]
IC50 [3]: 0.2 µM

NCC(=O)O [Glycine]
effect on basal P19 neuron viability, substance alone ([4]; no inducer of toxicity (U0126: 10 μM)): did not affect P19 neuron viability
